Experimental data reported in publication PMC12085399, “Quantitative in vitro-to-in vivo extrapolation of human adrenergic and trace amine-associated receptor 1 potencies of pre-workout supplement ingredients using physiologically based kinetic modelling-based reverse dosimetry” (Archives of Toxicology, 2025).

Tests used:
ADRα1D = experiment: PBK modelling-based reverse dosimetry of in vitro EC50 to ED50, ADRα1D; settings: predicted human oral ED50 from in vitro EC50 (Pinckaers et al. [2024]) and modelled Cmax plasma venous
From the text: (§1) The in vitro effect concentrations (EC50), for activation of the α1A, α1B, α1D, α2A, α2B, β1 and β2 ADR activation and the activation of TAAR1, were obtained from our previous study (Pinckaers et al. [2024]).

ADRβ1 = experiment: PBK modelling-based reverse dosimetry of in vitro EC50 to ED50, ADRβ1; design: species or system human; settings: predicted human oral ED50 from in vitro EC50 (Pinckaers et al. [2024]) and modelled Cmax plasma venous
ADRα1A = experiment: PBK modelling-based reverse dosimetry of in vitro EC50 to ED50, ADRα1A; settings: predicted human oral ED50 from in vitro EC50 (Pinckaers et al. [2024]) and modelled Cmax plasma venous
From the text: as §1

Caco-2 cells = experiment: in vitro; settings: for metabolic breakdown by Caco-2 cells: Caco-2 transport studies, 10 µM; for fa (fraction absorbed) / ka (absorption rate constant): scaled from corrected Caco-2 Papp A-B, human
Experimental: (§2) Caco-2 cells (ATCC, Manassas, VA, USA; passage 30–44) were cultured in DMEM (Gibco, New York, USA) containing 4.5 g/L d-glucose, 4 mM L-glutamine and supplemented with 10% FBS (Gibco, Grand Island, NY, USA), 1% minimal essential medium non-essential amino acids (Gibco, Paisley, UK), 100 units/mL penicillin and 100 µg/mL streptomycin (Gibco, Grand Island, NY, USA). Cells were seeded at a density of 4.0 × 10^4 cells/cm^2 on polyester transwell insert membranes (12 mm insert, 0.4 µm pore size; Corning incorporated, Kennebunk, ME, USA). Cells were maintained in a humidified incubator with 5% CO2 at 37 °C for 21 or 22 days in 0.5 mL and 1.5 mL medium in the apical and basolateral compartments, respectively. The medium was refreshed every two or three days and always one day before the permeability assay.
(§3) On the day of the experiment, cells were washed twice with HBSS without phenol red (pH 7.4; Sigma-Aldrich, Steinheim, Germany) supplemented with 0.35 g/L sodium bicarbonate and 25 mM HEPES and they were equilibrated in this supplemented HBSS for 15 min in a humidified incubator with 5% CO2 at 37 °C. […] These stocks were diluted to a final concentration of 10 µM in pre-warmed supplemented HBSS (final DMSO level = 0.1%). After 15 min, the transepithelial electrical resistance (TEER) was measured with an Epithelial Voltohmmeter (World Precision Instruments, Sarasota, USA). Compound transport was studied in two directions: from the apical to the basolateral compartment (A-B) and from the basolateral to the apical compartment (B-A). For A-B experiments, 450 µL of the compound (10 µM) was added to the apical side and 1200 µL supplemented HBSS was added to the basolateral side. A sample of 50 µL was removed immediately from the apical compartment at time point zero. After 15 and 30 min, samples were taken from the basolateral compartment. Cells were kept in the incubator during the experiment. After 60 min, medium from both compartments was sampled, cells were washed twice with supplemented HBSS and were maintained in the incubator. After 15 min, the TEER was measured again to check for epithelial barrier damage due to compound exposure. After this, cells were lysed in RIPA buffer (Thermo Scientific, Rockford, IL, USA). For B-A experiments, 400 µL of supplemented HBSS was added to the apical side and 1250 µL of the compound (10 µM) was added to the basolateral side. A sample of 50 µL was removed immediately from the basolateral compartment at time point zero. After 15 and 30 min, samples were taken from the apical compartment. After 60 min, samples were taken similarly as in A-B experiments. The sampled medium and cell lysates were stored at −20 °C till the day of the liquid chromatography–mass spectrometry (LC–MS/MS) analysis. All experiments were run in duplicate. The compounds were quantified with LC–MS/MS as described in Sect. "LC–MS/MS analysis".
(§4) Before chemical analysis, cell lysates were two times diluted in ice-cold methanol and centrifuged at 15,000 rpm at 4 °C. The supernatant was then injected into the LC–MS/MS system. Sampled buffer from donor compartments was diluted 40 times in buffer and samples from the receiver compartment were analysed undiluted. Standards were prepared in the same assay buffer to quantify the amount of compound in medium samples. For quantification of compounds in cell lysates, standards were prepared in a mixture of 50% RIPA buffer and 50% methanol.
(§5) All data are presented as mean ± SD.
(§6) For the < Tsi > a value of 3.32 h was used (Grandoni et al. [2019]).

in vitro = settings: human; for Papp B→A at 60 min, 10 µM / efflux ratio at 60 min, 10 µM: Caco-2, pH 7.4; for recovery at 60 min, 10 µM: after 60 min, mean ± SD
Experimental: as §2, §3, §4, §5, §6

ADRβ2 = experiment: PBK modelling-based reverse dosimetry of in vitro EC50 to ED50, ADRβ2; settings: predicted human oral ED50 from in vitro EC50 (Pinckaers et al. [2024]) and modelled Cmax plasma venous
From the text: as §1

ADRα1B = experiment: PBK modelling-based reverse dosimetry of in vitro EC50 to ED50, ADRα1B; settings: predicted human oral ED50 from in vitro EC50 (Pinckaers et al. [2024]) and modelled Cmax plasma venous
From the text: as §1

[1] = Caco-2, pH 7.4, Papp A-B corrected, corrected for the difference between Papp A-B of metoprolol in this study and in literature
[2] = Caco-2, pH 7.4, Papp A-B, Caco-2, apical to basolateral, 10 µM, HBSS pH 7.4, mean ± SD, duplicate
[3] = Caco-2, pH 7.4, Recovery (A-B), Caco-2, A-B experiments
[4] = Caco-2, pH 7.4, Recovery (B-A), Caco-2, B-A experiments

Row | SMILES | ADRα1D ED50 (ADRα1D) | ADRβ1 ED50 (ADRβ1) | ADRα1A ED50 (ADRα1A) | metabolic breakdown by Caco-2 cells (Caco-2 cells) | fa (fraction absorbed) (Caco-2 cells) | ka (absorption rate constant) (Caco-2 cells) | Papp B→A at 60 min, 10 µM (in vitro) | efflux ratio at 60 min, 10 µM (in vitro) | Papp A→B at 60 min, 10 µM (in vitro; [1]) | Papp A→B at 60 min, 10 µM (in vitro; [2]) | recovery at 60 min, 10 µM (in vitro; [3]) | recovery at 60 min, 10 µM (in vitro; [4]) | ADRβ2 ED50 (ADRβ2) | ADRα1B ED50 (ADRα1B)
1 | NCCc1ccccc1 [Phenethylamine, phenethylamine] | – (compounds with a dash (-) did not activate the receptors in vitro at concentrations ≤ 300 µM) | – (compounds with a dash (-) did not activate the receptors in vitro at concentrations ≤ 300 µM) | – (compounds with a dash (-) did not activate the receptors in vitro at concentrations ≤ 300 µM) | metabolized by Caco-2 cells | 1.00 | 1.64 h⁻¹ | 1.95 ± 1.04 ×10⁻⁶ cm/s | 0.677 | 10.5 ×10⁻⁶ cm/s | 2.88 ± 0.22 ×10⁻⁶ cm/s | 15.7 ± 1.51% | 103 ± 3.36% | – (compounds with a dash (-) did not activate the receptors in vitro at concentrations ≤ 300 µM) | – (compounds with a dash (-) did not activate the receptors in vitro at concentrations ≤ 300 µM)
2 | CN(C)CCc1ccc(O)cc1 [Hordenine, hordenine] | 11.5 mg/kg bw | – (compounds with a dash (-) did not activate the receptors in vitro at concentrations ≤ 300 µM) | – (compounds with a dash (-) did not activate the receptors in vitro at concentrations ≤ 300 µM) |  | 1.00 | 3.46 h⁻¹ | 11.2 ± 0.22 ×10⁻⁶ cm/s | 0.862 | 47.3 ×10⁻⁶ cm/s | 13 ± 0.192 ×10⁻⁶ cm/s | 96.7 ± 1.27% | 107 ± 0.0262% | – (compounds with a dash (-) did not activate the receptors in vitro at concentrations ≤ 300 µM) | 1.90 mg/kg bw
3 | CNCC(O)c1ccc(O)cc1 (stereo not shown) [p-Synephrine, Synephrine] | 2.35 mg/kg bw |  | 3.32 mg/kg bw | not observed | 0.997 | 0.951 h⁻¹ | 0.22 ± 0.0453 ×10⁻⁶ cm/s |  | 3.47 ×10⁻⁶ cm/s | 0.951 ± 0.497 ×10⁻⁶ cm/s | 109 ± 1.48% | 100 ± 4.89% | – (compounds with a dash (-) did not activate the receptors in vitro at concentrations ≤ 300 µM) | 0.914 mg/kg bw
4 | CNC(C)C(O)c1ccc(O)cc1 (stereo not shown) [Methylsynephrine] | – (compounds with a dash (-) did not activate the receptors in vitro at concentrations ≤ 300 µM) | 16.9 mg/kg bw | 29.7 mg/kg bw |  | 0.971 | 0.563 h⁻¹ | 0.39 ± 0.202 ×10⁻⁶ cm/s | 1.1 | 1.3 ×10⁻⁶ cm/s | 0.353 ± 0.215 ×10⁻⁶ cm/s | 114 ± 8.39% | 102 ± 11.7% | – (compounds with a dash (-) did not activate the receptors in vitro at concentrations ≤ 300 µM) | – (compounds with a dash (-) did not activate the receptors in vitro at concentrations ≤ 300 µM)
5 | NCCc1ccc(O)cc1 [Tyramine, tyramine] | – (compounds with a dash (-) did not activate the receptors in vitro at concentrations ≤ 300 µM) |  | – (compounds with a dash (-) did not activate the receptors in vitro at concentrations ≤ 300 µM) | not observed | 1.00 | 1.50 h⁻¹ | 1.13 ± 0.67 ×10⁻⁶ cm/s |  | 8.7 ×10⁻⁶ cm/s | 2.38 ± 1.19 ×10⁻⁶ cm/s | 114 ± 11.2% | 84 ± 6.25% | – (compounds with a dash (-) did not activate the receptors in vitro at concentrations ≤ 300 µM) | – (compounds with a dash (-) did not activate the receptors in vitro at concentrations ≤ 300 µM)
